In patent US6306828A, “Enantiomerically-enhanced nutritional energy substrates” (Baxter International, Inc., priority 1995, dated 2001):

Assays:
isolated rat hepatocytes [1] = experiment: Bioavailability/metabolism in isolated rat hepatocytes (production of metabolic intermediates); type: cell-based, male Wistar rats; settings: 20 mM; for Glucose production / Ketone Bodies production / Pyruvate-Lactate production: 37° C.
Experimental: (§1) Assay of Bioavailability and Gross Toxicity of Trilactyl Glycerate in Isolate Rat Hepatocytes
(§2) In the following experiment, male Wistar rats (200-250 g) fasted for 24 hours were used. Hepatocytes were isolated according to the method of Berry and Friend (1969) as modified by Groen et al. (1982).
(§3) The isolated hepatocytes were incubated as follows:
[…] […] The supernatant was neutralized with KOH (2 M) and Mops (0.3 M) for subsequent determination of metabolites. 0.5 ml aliquots of the cell suspension were centrifuged at 13,500 g for 15 seconds. The pellet was frozen in liquid nitrogen and stored at -80° C. to subsequently measure pyruvate kinase activity.

isolated rat hepatocytes [2] = experiment: Gross toxicity, as gauged by hepatocyte viability; type: cell-based, male Wistar rats; settings: 20 mM
Experimental: as §1, §2, §3
Hepatocytes (final concentration=10 mg dry cell/ml) were incubated in closed vials at 37° C. in a shaking water bath (60 strokes/min) for 30 minutes in 2.5 ml Krebs-bicarbonate buffer (NaCl: 120 mmol/L, KCl: 4.8 mmol/L, KH2 PO4 : 1.2 mmol/L, MgSO4 : 1.2 mmol/L, NaCO3 H: 24 mmol/L, Ca^2+ :2.4 mmol/L, pH 7.4) containing Bovine Serum Albumin (BSA)-oleate (2%-2 mmol/L), trilactyl glycerate or glucose octanoate (20 mM) The gas atmosphere was O2 /CO2 (19:1). After 30 minutes, 0.35 ml samples of the cell suspension were taken and quenched with perchloric acid (HCIO4, final concentration 5% (w/v)), then centrifuged at 13,500 g for 5 minutes. The supernatant was neutralized with KOH (2 M) and Mops (0.3 M) for subsequent determination of metabolites. 0.5 ml aliquots of the cell suspension were centrifuged at 13,500 g for 15 seconds. The pellet was frozen in liquid nitrogen and stored at -80° C. to subsequently measure pyruvate kinase activity.

skeletal muscle = settings: Hermanson et al. 1972; cited from earlier work
[3] = system: cerebral metabolism / brain function during hypoglycemia; settings: cited from earlier work
macrophage cultures = settings: high lactate concentration; Jensen et al. 1986; cited from earlier work

CC(O)C(=O)OCC(COC(=O)C(C)O)OC(=O)C(C)O (single isomer, unassigned) [trilactyl glycerate]
Glucose production (isolated rat hepatocytes [1]; 0 Mins.): 0.006 | Ketone Bodies production (isolated rat hepatocytes [1]; 0 Mins.): 0.010 | Pyruvate-Lactate production (isolated rat hepatocytes [1]; 0 Mins.): 0.012 | bioavailability and metabolic conversion (isolated rat hepatocytes [1]): demonstrate the bioavailability of trilactyl glycerate and its interconversion to glucose | Glucose production (isolated rat hepatocytes [1]; 15 Mins.): 0.027 | Ketone Bodies production (isolated rat hepatocytes [1]; 15 Mins.): 0.12 | Pyruvate-Lactate production (isolated rat hepatocytes [1]; 15 Mins.): 0.38 | Glucose production (isolated rat hepatocytes [1]; 30 Mins.): 0.062 | Ketone Bodies production (isolated rat hepatocytes [1]; 30 Mins.): 0.15 | Pyruvate-Lactate production (isolated rat hepatocytes [1]; 30 Mins.): 0.42 | Glucose production (isolated rat hepatocytes [1]; 45 Mins.): 0.178 | Ketone Bodies production (isolated rat hepatocytes [1]; 45 Mins.): 0.11 | Pyruvate-Lactate production (isolated rat hepatocytes [1]; 45 Mins.): 0.45 | Glucose production (isolated rat hepatocytes [1]; 60 Mins.): 0.189 | Ketone Bodies production (isolated rat hepatocytes [1]; 60 Mins.): 0.13 | Pyruvate-Lactate production (isolated rat hepatocytes [1]; 60 Mins.): 0.43 | gross toxicity, as gauged by hepatocyte viability (isolated rat hepatocytes [2]): No evidence of gross toxicity

CCCCCCCC(=O)OC1O[C@H](CO)[C@@H](O)[C@H](O)[C@H]1O (stereo partly drawn) [glucose octanoate, α,β-D-Glucopyranosyl octanoate]
bioavailability and metabolic conversion (isolated rat hepatocytes [1]): demonstrate the bioavailability of the substrate and its utility as a keptone precursor

CC(O)C(=O)O (stereo not shown) [lactate]
metabolism of blood lactate by skeletal muscle (skeletal muscle): metabolized by skeletal muscle in significant quantities | support of cerebral glucose metabolism and cognitive functions during hypoglycemia ([3]; Amiel 1994): able to support cerebral glucose metabolism and maintain cognitive functions during hypoglycemia | protection of brain function during hypoglycemia ([3]; Maran et al. 1994): protective of brain function during hypoglycemia | secretion of angiogenesis factors (macrophage cultures): encouraged macrophage cultures to secrete angiogenesis factors
